Reference: patent US10160771B2, “Hepatitis C virus inhibitors and uses thereof in preparation of drugs” (priority 2014, dated 2018)

Assays:
[1] = tested on: HCV-1b replicon cells; assay: Cell Titer-fluor cell activity assay in HCV-1b replicon cells (CC50); type: cell-based; conditions: 3 days
How it was run: (§1)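 Con1 genotype 1b replicon cells (E1202G, T1280I, K1846T adaptive mutations), 8000 cells/well, exposed to 6-point 5-fold dilutions from 100, 10 or 1 nM top concentration in 0.5% DMSO, duplicate wells, 3 days at 37 °C. Viability read by Cell Titer-fluor (Ex 405/Em 515 nm) after 30 min; CC50 from nonlinear fit of inhibition %.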

[2] = tested on: HCV genotype 1b (HCV-1b) replicon cells; assay: HCV genotype 1b replicon luciferase assay (EC50); type: cell-based, hepatitis C virus genotype 1b (Con1 clone); conditions: 3 days, luciferase (Bright-Glo)
How it was run: (§2)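 H77-derived 1a (K1691R, K2040R, S2204I) or Con1-derived 1b (E1202G, T1280I, K1846T) luciferase replicon cells, 8000/well, exposed 3 days at 37° C. to 6-point 5-fold dilutions (top 100, 10 or 1 nM; 0.5% DMSO), in duplicate. Bright-Glo luminescence read; EC50 from nonlinear fit of % inhibition.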

[3] = tested on: HCV genotype 1a (HCV-1a) replicon cells; assay: HCV genotype 1a replicon luciferase assay (EC50); type: cell-based, hepatitis C virus genotype 1a (H77 clone); conditions: 3 days, luciferase (Bright-Glo)
How it was run: as §2

[4] = Cell Titer-fluor cell activity assay in HCV-1b replicon cells (CC50); type: cell-based
How it was run: as §1

[5] = in vitro; type: cell-based; conditions: HCV 1a replicon cells, 3 days, Cell Titer-fluor
Method: The EC50 and CC50 values of anti-HCV compounds were determined by HCV genotype 1a (HCV-1a) and 1B (HCV-1b) stable transfer replication (replicon) cells. The source of genotype 1a replicon is H77 clones containing K1691R, K2040R and S2204I adaptive mutations. The source of genotype 1b replicon is Con1 clones containing E1202G, T1280I and K1846T adaptive mutations.
HCV Replicon Cell Lines: HCV-1a and HCV-1b Cells
The compound powder was dissolved in 100% DMSO. Then the compound was diluted 5 times with 6 points, and added into the cell plate with Echo liquid handler. Ensure the final concentration of DMSO was 0.5%. Each compound was tested in double holes. Maximum initial concentration was 100, 10 or 1 nM, 5 times dilution, 6 points.
b) Cell Culture (HCV-1a or HCV-1b Replicon Cell):
1) absorbing the culture supernatant of the cell culture and washing the cells with 10 mL PBS.
2) adding preheated pancreatin to the washed cell culture flasks, rotating culture bottle to make the bottom of the culture bottle uniformly covered by pancreatin, then placed into 37° C., 5% CO2 incubator to digest.
3) suspending cells in each T150 culture flask with 10-15 mL culture medium, absorbing 0.1 mL liquid and diluting 2 times by trypan blue solution as counted.
4) diluting cells to 8×10^4/mL with the culture medium, adding the diluted cells into the compound-containing 96-well plate (Greiner, Cat.#655090) (100 μL/well, 8000 cells/well) with automatic liquid separator (Thermo Scientific). Then place into a 37° C., 5% CO2 incubator for 3 days. Cell control well: no compound, only containing 0.5% DMSO.
5) adding chemiluminescent substrate Cell Titer-fluor to the cell well, after incubation for 30 minutes, detecting the signal by chemiluminescence detection system Envison (Ex at 405 nm and read at 515 nm). The effect of the compounds on the activity of HCV replicon cells was analyzed according to the luminescence data, which was used to calculate the CC50 values.
The EC50 or CC50 values were obtained by nonlinear fitting analysis on inhibition percentage (inh %) data with GraphPad Prism software.

Structure (SMILES)	CC50 [1]	EC50 [2]	EC50 [3]	CC50 at 3 days [4]	EC50 ([2]; Hepatitis C virus, 72 h)	CC50 [5]	EC50 ([3]; Hepatitis C virus, 72 h)
COC(=O)N[C@H](C(=O)N1CCC[C@H]1c1ncc(-c2ccc(-c3ccc(-c4cnc([C@H]5C6CCC(C6)[C@@H]5C(=O)NC(c5cccnc5)C(C)C)[nH]4)cc3)cc2)[nH]1)C(C)C (single isomer, unassigned) [AA_233_C]	> 1 nM	0.101 to 1 nM	10 to 100 nM				
COC(=O)N[C@H](C(=O)N1CCCC1c1ccc(-c2ccc(-c3ccc(-c4cnc(C5CCCN5C(=O)[C@@H](NC(=O)OCCF)C(C)C)[nH]4)cc3)cc2)[nH]1)C(C)C (some centres unmarked) [AG_062]	> 10 nM	0.101 to 1 nM	10 to 100 nM				
COC(=O)N[C@H](C(=O)N1CCC[C@H]1c1ncc(-c2ccc(-c3ccc(-c4cnc(C5C6CCC(C6)[C@H]5C(=O)N[C@H](c5cccnc5)C(C)C)[nH]4)cc3)cc2)[nH]1)[C@@H](C)OC (some centres unmarked) [AA_271_B]	> 1 nM	0.101 to 1 nM	10 to 100 nM				
COC(=O)N[C@H](C(=O)N1CCC[C@H]1c1ncc(-c2ccc(-c3ccc(-c4cnc([C@H]5C6CCC(C6)[C@@H]5C(=O)NC(C)c5cccnc5)[nH]4)cc3)cc2)[nH]1)C(C)C (single isomer, unassigned) [AA_204_C]	> 1 nM	0.001 to 0.1 nM	1 to 10 nM				
COC(=O)N[C@H](C(=O)N1CCC[C@H]1c1ncc(-c2ccc(-c3ccc(-c4cnc(C5C6CCC(C6)[C@@H]5C(=O)NC(C)c5cnccn5)[nH]4)cc3)cc2)[nH]1)[C@@H](C)OC (single isomer, unassigned) [AA_281_C]	> 1 nM	0.101 to 1 nM	1 to 10 nM				
COC(=O)N[C@H](C(=O)N1CCC[C@H]1c1ncc(-c2ccc(-c3ccc(-c4cnc(C5C6CCC(C6)[C@@H]5C(=O)N[C@H](c5cccnc5)C(C)C)[nH]4)cc3)cc2)[nH]1)[C@@H](C)OC (some centres unmarked) [AA_271_A]	> 1 nM	0.001 to 0.1 nM	0.101 to 1 nM				
COC(=O)NC(C(=O)N1CCC[C@H]1c1ncc(-c2ccc(-c3ccc(-c4[nH]c(C5CCCN5C(=O)[C@@H](NC(=O)OC)C(C)C)c5c4CCCC5)cc3)cc2)[nH]1)C1CCOC1 (some centres unmarked) [AG_046]				> 100 nM	0.101 to 1 nM	> 100 nM	10 to 100 nM
COC(=O)N[C@H](C(=O)N1CCCC1c1ccc(-c2ccc(-c3ccc(-c4cnc([C@@H]5CCCN5C(=O)[C@@H](NC(=O)OC)C5CCOC(C)C5)[nH]4)cc3)cc2)[nH]1)C(C)C (some centres unmarked) [AG_053]				> 100 nM	0.101 to 1 nM	> 100 nM	1 to 10 nM
COC(=O)NC(C(=O)N1CCC[C@H]1c1ncc(-c2ccc(-c3ccc(-c4[nH]c(C5CCCN5C(=O)[C@@H](NC(=O)OC)C(C)C)c5c4CCC5)cc3)cc2)[nH]1)C1CCOC(C)C1 (some centres unmarked) [AG_050]				> 100 nM	0.001 to 0.1 nM	> 100 nM	1 to 10 nM
COC(=O)N[C@H](C(=O)N1CCCC1c1[nH]c(-c2ccc(-c3ccc(-c4cnc([C@@H]5CCCN5C(=O)[C@@H](NC(=O)OC)C(C)C)[nH]4)cc3)cc2)c2c1CCCC2)C(C)C (some centres unmarked) [AG_015]				> 10 nM	0.001 to 0.1 nM	> 100 nM	10 to 100 nM
COC(=O)N[C@H](C(=O)N1CCC[C@H]1c1ncc(-c2ccc(-c3ccc(-c4cnc(C5C6CCC(C6)[C@@H]5C(=O)N[C@H](C)c5cccnc5)[nH]4)cc3)cc2)[nH]1)[C@@H](C)OC (single isomer, unassigned) [AA_253_C]	> 1 nM	1 to 10 nM	10 to 100 nM				
COC(=O)N[C@H](C(=O)N1CC2(C[C@H]1c1ncc(-c3ccc(-c4ccc(-c5[nH]c([C@@H]6CCCN6C(=O)[C@@H](NC(=O)OC)[C@@H](C)OC)c6c5CCC6)cc4)cc3)[nH]1)OCCO2)[C@@H](C)OC [AG_089]	> 1 nM	0.001 to 0.1 nM	1 to 10 nM				
COC(=O)NC(C(=O)N1CCCC1c1[nH]c(-c2ccc(-c3ccc(-c4cnc([C@@H]5CCCN5C(=O)[C@@H](NC(=O)OC)C(C)C)[nH]4)cc3)cc2)c2c1CCCC2)C1CCOCC1 (some centres unmarked) [AG_040]				> 10 nM	0.101 to 1 nM	> 100 nM	10 to 100 nM
COC(=O)NC(C(=O)N1CCCC1c1[nH]c(-c2ccc(-c3ccc(-c4cnc([C@@H]5CCCN5C(=O)C(NC(=O)OC)C5CCOCC5)[nH]4)cc3)cc2)c2c1CCC2)C1CCOCC1 (some centres unmarked) [AG_042]				> 100 nM	0.101 to 1 nM	> 100 nM	1 to 10 nM
COC(=O)NC(C(=O)N1CCCC1c1[nH]c(-c2ccc(-c3ccc(-c4cnc([C@@H]5CCCN5C(=O)[C@@H](NC(=O)OC)C(C)C)[nH]4)cc3)cc2)c2c1CCC2)C1CCOC1 (single isomer, unassigned) [AG_025_C]	> 10 nM	0.101 to 1 nM	10 to 100 nM				
COC(=O)N[C@H](C(=O)N1CCCC1c1ccc(-c2ccc(-c3ccc(-c4cnc([C@@H]5CCCN5C(=O)[C@@H](NC(=O)OC)[C@@H](C)OC)[nH]4)cc3)cc2)[nH]1)[C@@H](C)OC (single isomer, unassigned) [AG_072_B]	> 1 nM	0.101 to 1 nM	1 to 10 nM				
COC(=O)N[C@H](C(=O)N1CCCC1c1ncc(-c2ccc3cc(-c4ccc(-c5[nH]c(C6CCCN6C(=O)[C@@H](NC(=O)OC)C(C)C)c6c5CCC6)cc4)ccc3c2)[nH]1)C(C)C (some centres unmarked) [AG_048]				> 100 nM	0.101 to 1 nM	> 100 nM	10 to 100 nM
COC(=O)NC(C(=O)N1CCC[C@H]1c1ncc(-c2ccc(-c3ccc(-c4[nH]c(C5CCCN5C(=O)[C@@H](NC(=O)OC)C(C)C)c5c4CCCC5)cc3)cc2)[nH]1)C1CCOC(C)C1 (some centres unmarked) [AG_047]				> 100 nM	0.101 to 1 nM	> 100 nM	10 to 100 nM
COC(=O)N[C@H](C(=O)N1CCC[C@H]1c1[nH]c(-c2ccc(-c3ccc(-c4cnc([C@@H]5CCCCN5C(=O)[C@@H](NC(=O)OC)[C@@H](C)OC)[nH]4)cc3)cc2)c2c1COC2)C(C)OC (some centres unmarked) [AG_124]				> 1 nM	0.001 to 0.1 nM	> 100 nM	0.101 to 1 nM
COC(=O)NC(C(=O)N1CCCC1c1[nH]c(-c2ccc(-c3ccc(-c4cnc([C@@H]5CCCN5C(=O)[C@@H](NC(=O)OC)C(C)C)[nH]4)cc3)cc2)c2c1CCC2)C1CCOC1 (single isomer, unassigned) [AG_025_B]	> 10 nM	0.001 to 0.1 nM	10 to 100 nM				
COC(=O)NC(C(=O)N1CCC[C@H]1c1ncc(-c2ccc3cc(-c4ccc(-c5[nH]c(C6CCCN6C(=O)[C@@H](NC(=O)OC)C(C)C)c6c5CCC6)cc4)ccc3c2)[nH]1)C1CCOCC1 (some centres unmarked) [AG_051]				> 100 nM	0.101 to 1 nM	> 100 nM	1 to 10 nM
COC(=O)NC(C(=O)N1CCCC1c1[nH]c(-c2ccc(-c3ccc(-c4cnc([C@@H]5CCCN5C(=O)[C@@H](NC(=O)OC)C(C)C)[nH]4)cc3)cc2)c2c1CCC2)C1CCOCC1 (some centres unmarked) [AG_036]				> 10 nM	0.001 to 0.1 nM	> 100 nM	1 to 10 nM
COC(=O)N[C@H](C(=O)N1CCC[C@H]1c1ncc(-c2ccc(-c3ccc(-c4[nH]c([C@@H]5CCCN5C(=O)[C@@H](NC(=O)OC)[C@@H](C)OC)c5c4COC5)cc3)cc2)[nH]1)[C@@H](C)OC [AG_080_A]	> 5 nM	0.001 to 0.1 nM	0.001 to 0.1 nM				
